Reference: US20220055989A1, “CONDENSED PYRROLES AS NOVEL BROMODOMAIN INHIBITORS” (ALBERT LUDWING UNIVERSITÄT FREIBURG, priority 2018, published 2022)

How the values were obtained:
ATAD2B [1] = biological target: T1, ATAD2B (Homo sapiens, UniProt Q9ULI0); assay: Bromodomain assay % Ctrl determination ATAD2B; conditions: lower numbers indicate a stronger binding
T1 construct: T7 phage strains displaying bromodomains were grown in parallel; made in house; host or cells: T7 phage grown in an E. coli host derived from the BL21 strain
T1 sequence (Q9ULI0 951-1066 limits assumed): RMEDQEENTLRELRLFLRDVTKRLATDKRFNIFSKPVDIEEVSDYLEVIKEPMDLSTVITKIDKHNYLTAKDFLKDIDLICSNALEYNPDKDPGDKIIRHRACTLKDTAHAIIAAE
Protocol: (§1) Compounds that bind the bromodomain prevent its binding to the immobilized ligand thus reducing the amount of protein captured. […] Hits are identified by measuring the amount of bromodomain captured in test versus control samples. Bromodomain assays for % Ctrl determination: T7 phage strains displaying bromodomains were grown in parallel in 24-well blocks in an E. coli host derived from the BL21 strain. E. coli were grown to log-phase and infected with T7 phage from a frozen stock (multiplicity of infection=0.4) and incubated with shaking at 32° C. until lysis (90-150 minutes). The lysates were centrifuged (5,000×g) and filtered (0.2 μm) to remove cell debris. […] The liganded beads were blocked with excess biotin and washed with blocking buffer (SeaBlock (Pierce), 1% BSA, 0.05% Tween 20, 1 mM DTT) to remove unbound ligand and to reduce non-specific phage binding. […] Test compounds were prepared as 1000× stocks in 100% DMSO and subsequently diluted 1:25 in monoethylene glycol (MEG). The compounds were then diluted directly into the assays such that the final concentrations of DMSO and MEG were 0.1% and 2.4%, respectively. All reactions were performed in polypropylene 384-well plates in a final volume of 0.02 ml. […] The bromodomain concentration in the eluates was measured by qPCR. […]

BAZ2A = biological target: T2, BAZ2A (Homo sapiens, UniProt Q9UIF9); assay: Bromodomain assay % Ctrl determination BAZ2A; conditions: lower numbers indicate a stronger binding
T2 construct: T7 phage strains displaying bromodomains were grown in parallel; made in house; host or cells: T7 phage grown in an E. coli host derived from the BL21 strain
T2 sequence (Q9UIF9 1793-1897 limits assumed): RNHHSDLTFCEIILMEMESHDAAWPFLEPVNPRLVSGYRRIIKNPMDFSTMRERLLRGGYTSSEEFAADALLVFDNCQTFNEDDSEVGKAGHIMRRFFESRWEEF
Protocol: as §1

BAZ2B = biological target: T3, BAZ2B (Homo sapiens, UniProt Q9UIF8); assay: Bromodomain assay % Ctrl determination BAZ2B; conditions: lower numbers indicate a stronger binding
T3 construct: T7 phage strains displaying bromodomains were grown in parallel; made in house; host or cells: T7 phage grown in an E. coli host derived from the BL21 strain
T3 sequence (Q9UIF8 2060-2164 limits assumed): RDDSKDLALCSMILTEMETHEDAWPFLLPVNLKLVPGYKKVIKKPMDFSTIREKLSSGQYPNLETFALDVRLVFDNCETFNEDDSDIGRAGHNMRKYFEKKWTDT
Protocol: as §1

BRD2(1) = biological target: T4, BRD2(1) (Homo sapiens, UniProt P25440); assay: Bromodomain assay % Ctrl determination BRD2(1); conditions: lower numbers indicate a stronger binding
T4 construct: T7 phage strains displaying bromodomains were grown in parallel; made in house; host or cells: T7 phage grown in an E. coli host derived from the BL21 strain
T4 sequence (P25440 74-180 limits assumed): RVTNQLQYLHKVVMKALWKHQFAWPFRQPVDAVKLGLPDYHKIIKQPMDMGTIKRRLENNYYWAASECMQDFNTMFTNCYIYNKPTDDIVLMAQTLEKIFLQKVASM
Protocol: as §1

BRD3(2) = biological target: T5, BRD3(2) (Homo sapiens, UniProt Q15059); assay: Bromodomain assay % Ctrl determination BRD3(2); conditions: lower numbers indicate a stronger binding
T5 construct: T7 phage strains displaying bromodomains were grown in parallel; made in house; host or cells: T7 phage grown in an E. coli host derived from the BL21 strain
T5 sequence (Q15059 306-415 limits assumed): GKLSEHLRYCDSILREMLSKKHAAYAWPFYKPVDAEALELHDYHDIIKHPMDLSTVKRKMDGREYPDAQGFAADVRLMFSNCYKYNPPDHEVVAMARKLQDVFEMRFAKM
Protocol: as §1

BRPF1 = biological target: T6, BRPF1 (Homo sapiens, UniProt P55201); assay: Bromodomain assay % Ctrl determination BRPF1; conditions: lower numbers indicate a stronger binding
T6 construct: T7 phage strains displaying bromodomains were grown; host or cells: T7 phage in E. coli derived from BL21
T6 sequence (P55201 628-732 limits assumed): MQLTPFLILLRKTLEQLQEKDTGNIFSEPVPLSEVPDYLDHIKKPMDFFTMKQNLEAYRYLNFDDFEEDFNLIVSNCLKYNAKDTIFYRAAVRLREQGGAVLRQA
Protocol: as §1

PBRM1(5) = biological target: T7, PBRM1(5) (Homo sapiens, UniProt Q86U86); assay: Bromodomain assay % Ctrl determination PBRM1(5); conditions: lower numbers indicate a stronger binding
T7 construct: T7 phage strains displaying bromodomains were grown in parallel; host or cells: T7 phage grown in E. coli host derived from BL21
T7 sequence (Q86U86 653-763 limits assumed): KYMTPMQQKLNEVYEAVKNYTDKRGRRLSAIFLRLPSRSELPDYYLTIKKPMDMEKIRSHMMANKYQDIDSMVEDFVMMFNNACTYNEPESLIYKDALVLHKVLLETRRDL
Protocol: as §1

SMARCA2 [2] = biological target: T8, SMARCA2 (Homo sapiens, UniProt P51531); assay: Bromodomain assay % Ctrl determination SMARCA2; conditions: lower numbers indicate a stronger binding
T8 construct: T7 phage strains displaying bromodomains were grown in parallel; host or cells: T7 phage grown in E. coli host derived from BL21
T8 sequence (P51531 1378-1506 limits assumed): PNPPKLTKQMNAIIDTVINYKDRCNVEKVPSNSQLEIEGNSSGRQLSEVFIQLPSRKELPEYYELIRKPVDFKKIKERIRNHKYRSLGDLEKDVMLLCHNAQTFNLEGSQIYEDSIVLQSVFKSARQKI
Protocol: as §1

TAF1L(2) = biological target: T9, TAF1L(2) (Homo sapiens, UniProt Q8IZX4); assay: Bromodomain assay % Ctrl determination TAF1L(2); conditions: lower numbers indicate a stronger binding
T9 construct: FALZ, PBRM1-BD2, BPRM1-BDS, TAF1-BD2, TAF1L-BD2; host or cells: T7 phage grown in E. coli host derived from BL21
T9 sequence (Q8IZX4 1517-1626 limits assumed): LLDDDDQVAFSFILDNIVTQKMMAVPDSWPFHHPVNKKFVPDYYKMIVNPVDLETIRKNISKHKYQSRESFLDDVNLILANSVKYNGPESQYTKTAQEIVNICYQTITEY
Protocol: as §1

ATAD2B [3] = biological target: T1, ATAD2B; assay: BROMOscan Kd determination ATAD2B; assay type: binding
Protocol: (§2) Bromodomain profiling was carried out on the basis of BROMOscan™. This platform accounted for the indirect determination of the dissociation constants between 19 bromodomains and the compound of formula (13), by binding competition against a reference immobilized ligand. Compounds that bind the bromodomain prevent its binding to the immobilized ligand thus reducing the amount of protein captured. […] Hits are identified by measuring the amount of bromodomain captured in test versus control samples. Bromodomain assays for Kd determination: T7 phage strains displaying bromodomains were grown in parallel in 24-well blocks in an E. coli host derived from the BL21 strain. E. coli were grown to log-phase and infected with T7 phage from a frozen stock (multiplicity of infection=0.4) and incubated with shaking at 32° C. until lysis (90-150 minutes). The lysates were centrifuged (5,000×g) and filtered (0.2 μm) to remove cell debris. […] Kds were determined using an 11-point 3-fold compound dilution series with one DMSO control point. […] The bromodomain concentration in the eluates was measured by qPCR. […] Most Kds were determined using a compound top concentration=10,000 nM. […] Binding Constants (Kds): Binding constants (Kds) were calculated with a standard dose-response curve using the Hill equation: The Hill Slope was set to −1. […]

BRD3(1, 2) = biological target: T10, BRD3(1, 2) (Homo sapiens, UniProt Q15059); assay: BROMOscan Kd determination BRD3(1, 2); assay type: binding
T10 construct: T7 phage strains displaying bromodomains were grown in parallel; made in house; host or cells: T7 phage grown in an E. coli host derived from the BL21 strain
T10 sequence (Q15059 24-416 limits assumed): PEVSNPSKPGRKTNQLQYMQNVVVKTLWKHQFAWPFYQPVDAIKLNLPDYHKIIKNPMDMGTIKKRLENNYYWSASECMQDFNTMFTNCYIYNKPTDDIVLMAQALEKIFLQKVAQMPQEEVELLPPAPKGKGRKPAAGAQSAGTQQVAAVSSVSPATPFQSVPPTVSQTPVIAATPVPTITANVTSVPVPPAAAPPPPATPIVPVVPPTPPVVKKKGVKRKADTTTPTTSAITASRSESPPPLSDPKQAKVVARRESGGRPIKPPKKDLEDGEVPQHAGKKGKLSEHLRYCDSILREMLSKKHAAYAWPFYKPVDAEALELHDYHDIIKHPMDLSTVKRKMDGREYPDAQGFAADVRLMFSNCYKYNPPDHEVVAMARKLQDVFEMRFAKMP
Protocol: as §2

BRD8(1) = biological target: T11, BRD8(1) (Homo sapiens, UniProt Q9H0E9); assay: BROMOscan Kd determination BRD8(1); assay type: binding
T11 construct: T7 phage strains displaying bromodomains were grown; host or cells: T7 phage in E. coli derived from BL21
T11 sequence (Q9H0E9 706-811 limits assumed): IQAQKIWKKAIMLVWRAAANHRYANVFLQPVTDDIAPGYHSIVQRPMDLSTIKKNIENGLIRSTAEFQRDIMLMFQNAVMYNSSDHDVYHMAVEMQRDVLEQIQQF
Protocol: as §2

CREBBP = biological target: T12, CREBBP (Homo sapiens, UniProt Q92793); assay: BROMOscan Kd determination CREBBP; assay type: binding
T12 construct: T7 phage strains displaying bromodomains were grown; host or cells: T7 phage in E. coli derived from BL21
T12 sequence (Q92793 1085-1192 limits assumed): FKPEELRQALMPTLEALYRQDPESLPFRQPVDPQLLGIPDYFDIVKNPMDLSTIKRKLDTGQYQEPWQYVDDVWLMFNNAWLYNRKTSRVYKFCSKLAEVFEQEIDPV
Protocol: as §2

EP300 = biological target: T13, EP300 (Homo sapiens, UniProt Q09472); assay: BROMOscan Kd determination EP300; assay type: binding
T13 construct: T7 phage strains displaying bromodomains were grown; host or cells: T7 phage in E. coli derived from BL21
T13 sequence (Q09472 1049-1156 limits assumed): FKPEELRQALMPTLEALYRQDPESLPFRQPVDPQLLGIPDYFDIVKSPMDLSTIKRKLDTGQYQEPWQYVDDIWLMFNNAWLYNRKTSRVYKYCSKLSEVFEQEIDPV
Protocol: Bromodomain profiling was carried out on the basis of BROMOscan™. This platform accounted for the indirect determination of the dissociation constants between 19 bromodomains and the compound of formula (13), by binding competition against a reference immobilized ligand. Compounds that bind the bromodomain prevent its binding to the immobilized ligand thus reducing the amount of protein captured. […] Hits are identified by measuring the amount of bromodomain captured in test versus control samples. Bromodomain assays for Kd determination: T7 phage strains displaying bromodomains were grown in parallel in 24-well blocks in an E. coli host derived from the BL21 strain. E. coli were grown to log-phase and infected with T7 phage from a frozen stock (multiplicity of infection=0.4) and incubated with shaking at 32° C. until lysis (90-150 minutes). The lysates were centrifuged (5,000×g) and filtered (0.2 μm) to remove cell debris. […] The liganded beads were blocked with excess biotin and washed with blocking buffer (SeaBlock (Pierce), 1% BSA, 0.05% Tween 20, 1 mM DTT) to remove unbound ligand and to reduce non-specific phage binding. […] Test compounds were prepared as 1000× stocks in 100% DMSO. Kds were determined using an 11-point 3-fold compound dilution series with one DMSO control point. All compounds for Kd measurements are distributed by acoustic transfer (non-contact dispensing) in 100% DMSO. The compounds were then diluted directly into the assays such that the final concentration of DMSO was 0.09%. All reactions performed in polypropylene 384-well plates. Each was a final volume of 0.02 ml. […] The bromodomain concentration in the eluates was measured by qPCR. […] All compounds for Kd measurements are distributed by acoustic transfer (non-contact dispensing) in 100% DMSO. The compounds were then diluted directly into the assays such that the final concentration of DMSO was 0.09%. Most Kds were determined using a compound top concentration=10,000 nM. If the initial Kd determined was <0.169 nM (the lowest concentration tested), the measurement was repeated with a serial dilution starting at a lower top concentration. Binding Constants (Kds): Binding constants (Kds) were calculated with a standard dose-response curve using the Hill equation: The Hill Slope was set to −1. Curves were fitted using a non-linear least square fit with the Levenberg-Marquardt algorithm.

FALZ = biological target: T14, FALZ (Homo sapiens, UniProt Q12830); assay: BROMOscan Kd determination FALZ; assay type: binding
T14 construct: T7 phage strains displaying bromodomains were grown in parallel; host or cells: T7 phage grown in E. coli host derived from BL21
Protocol: as §2

SMARCA2 [4] = biological target: T8, SMARCA2; assay: BROMOscan Kd determination SMARCA2; assay type: binding
Protocol: as §2

SMILES	% Ctrl @ 10 000 nM ATAD2B (ATAD2B [1])	% Ctrl @ 10 000 nM BAZ2A (BAZ2A)	% Ctrl @ 10 000 nM BAZ2B (BAZ2B)	% Ctrl @ 10 000 nM BRD2(1) (BRD2(1))	% Ctrl @ 10 000 nM BRD3(2) (BRD3(2))	% Ctrl @ 10 000 nM BRPF1 (BRPF1)	% Ctrl @ 10 000 nM PBRM1(5) (PBRM1(5))	% Ctrl @ 10 000 nM SMARCA2 (SMARCA2 [2])	% Ctrl @ 10 000 nM TAF1L(2) (TAF1L(2))	Kd (ATAD2B [3])	Kd (BRD3(1, 2))	Kd (BRD8(1))	Kd (CREBBP)	Kd (EP300)	Kd (FALZ)	Kd (SMARCA2 [4])
COc1ccc(S(=O)(=O)N2CCOCC2)cc1NC(=O)c1[nH]c(C)c2c1CCCCC2=O [Compound 13, N-(2-methoxy-5-(morpholinosulfonyl)phenyl)-3-methyl-4-oxo-2,4,5,6,7,8-hexahydrocyclohepta[c]pyrrole-1-carboxamide]	97 % Ctrl	24 % Ctrl	6.8 % Ctrl	0 % Ctrl	0 % Ctrl	0.15 % Ctrl	90 % Ctrl	83 % Ctrl	40 % Ctrl							
Cc1[nH]c(-c2cc(N)ccc2Cl)c2c1C(=O)CCCC2 [Compound 23]										> 10000 nM	100 nM	2600 nM	420 nM	1200 nM	2600 nM	> 10000 nM
